Measurements taken from PubChem BioAssay (NCI).
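Test compounds were applied to cells in 96-well plates for 48 hours at 5 doses. At the GI50, growth is halved. The concentration for full growth arrest is given as TGI.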

Legend:
Assay in all cases: inhibition of tumour cell growth, NCI panel, 48 h
KM12 colon = tested on: KM12 colon
CCRF-CEM leukemia = tested on: CCRF-CEM leukemia
SK-MEL-28 melanoma = tested on: SK-MEL-28 melanoma
RXF 393 renal = tested on: RXF 393 renal
HOP-62 NSCLC = tested on: HOP-62 NSCLC
HCT-15 colon = tested on: HCT-15 colon
NCI-H226 lung = tested on: NCI-H226 lung
SK-MEL-5 melanoma = tested on: SK-MEL-5 melanoma
NCI-H460 lung = tested on: NCI-H460 lung
TK-10 renal = tested on: TK-10 renal
SW-620 colon = tested on: SW-620 colon
NCI-H522 lung = tested on: NCI-H522 lung
HCT-116 colon = tested on: HCT-116 colon
SF-295 CNS = tested on: SF-295 CNS
HS 578T breast = tested on: HS 578T breast
HOP-92 NSCLC = tested on: HOP-92 NSCLC
MDA-MB-435 = tested on: MDA-MB-435
UACC-257 melanoma = tested on: UACC-257 melanoma
M14 melanoma = tested on: M14 melanoma
T-47D breast = tested on: T-47D breast
SK-OV-3 ovarian = tested on: SK-OV-3 ovarian
PC-3 prostate = tested on: PC-3 prostate
MDA-MB-231 breast = tested on: MDA-MB-231 breast
COLO 205 colon = tested on: COLO 205 colon
DU-145 prostate = tested on: DU-145 prostate
SF-268 CNS = tested on: SF-268 CNS
SK-MEL-2 melanoma = tested on: SK-MEL-2 melanoma
U251 CNS = tested on: U251 CNS
IGROV1 ovarian = tested on: IGROV1 ovarian
ACHN renal = tested on: ACHN renal
HCC-2998 colon = tested on: HCC-2998 colon
HL-60(TB) leukemia = tested on: HL-60(TB) leukemia
SF-539 CNS = tested on: SF-539 CNS
A549 NSCLC = tested on: A549 NSCLC
CAKI-1 renal = tested on: CAKI-1 renal
OVCAR-5 ovarian = tested on: OVCAR-5 ovarian
NCI/ADR-RES ovarian = tested on: NCI/ADR-RES ovarian
SNB-19 CNS = tested on: SNB-19 CNS
MOLT-4 leukemia = tested on: MOLT-4 leukemia
MCF7 breast = tested on: MCF7 breast
HT29 colon = tested on: HT29 colon
OVCAR-8 ovarian = tested on: OVCAR-8 ovarian
UACC-62 melanoma = tested on: UACC-62 melanoma
UO-31 renal = tested on: UO-31 renal
OVCAR-4 ovarian = tested on: OVCAR-4 ovarian
786-0 renal = tested on: 786-0 renal
SNB-75 CNS = tested on: SNB-75 CNS
NCI-H23 lung = tested on: NCI-H23 lung
A498 renal = tested on: A498 renal
MALME-3M melanoma = tested on: MALME-3M melanoma
LOX IMVI melanoma = tested on: LOX IMVI melanoma
EKVX NSCLC = tested on: EKVX NSCLC
SR leukemia = tested on: SR leukemia
SN12C renal = tested on: SN12C renal
K-562 leukemia = tested on: K-562 leukemia
RPMI-8226 leukemia = tested on: RPMI-8226 leukemia

C=CCn1c(SCC(=O)Nc2ccc(C(=O)/C=C/c3cc(OC)c(OC)c(OC)c3)cc2)nnc1-c1c[nH]c2ccccc12
GI50 (KM12 colon): 1.48 µM | TGI (KM12 colon): 2.98 µM | GI50 (CCRF-CEM leukemia): 2.24 µM | TGI (CCRF-CEM leukemia): > 100 µM | GI50 (SK-MEL-28 melanoma): 2.32 µM | TGI (SK-MEL-28 melanoma): 5.61 µM | GI50 (RXF 393 renal): 1.53 µM | TGI (RXF 393 renal): 3.34 µM | GI50 (HOP-62 NSCLC): 2.06 µM | TGI (HOP-62 NSCLC): 5.22 µM | GI50 (HCT-15 colon): 2.08 µM | TGI (HCT-15 colon): 11.1 µM | GI50 (NCI-H226 lung): 2.56 µM | TGI (NCI-H226 lung): 56.8 µM | GI50 (SK-MEL-5 melanoma): 3.52 µM | TGI (SK-MEL-5 melanoma): 13.5 µM | GI50 (NCI-H460 lung): 3.1 µM | TGI (NCI-H460 lung): 10.1 µM | GI50 (TK-10 renal): 5.8 µM | TGI (TK-10 renal): 34.3 µM | GI50 (SW-620 colon): 2.08 µM | TGI (SW-620 colon): 5.85 µM | GI50 (NCI-H522 lung): 2.15 µM | TGI (NCI-H522 lung): 4.99 µM | GI50 (HCT-116 colon): 0.376 µM | TGI (HCT-116 colon): 1.53 µM | GI50 (SF-295 CNS): 3.14 µM | TGI (SF-295 CNS): 11.6 µM | GI50 (HS 578T breast): 4.35 µM | TGI (HS 578T breast): > 100 µM | GI50 (HOP-92 NSCLC): 4.24 µM | TGI (HOP-92 NSCLC): > 100 µM | GI50 (MDA-MB-435): 1.82 µM | TGI (MDA-MB-435): 4.76 µM | GI50 (UACC-257 melanoma): 3.5 µM | TGI (UACC-257 melanoma): 19.8 µM | GI50 (M14 melanoma): 2.66 µM | TGI (M14 melanoma): 8.39 µM | GI50 (T-47D breast): 2.42 µM | TGI (T-47D breast): > 100 µM | GI50 (SK-OV-3 ovarian): 4.46 µM | TGI (SK-OV-3 ovarian): 19.3 µM | GI50 (PC-3 prostate): 3.09 µM | TGI (PC-3 prostate): > 100 µM | GI50 (MDA-MB-231 breast): 5.58 µM | TGI (MDA-MB-231 breast): > 100 µM | GI50 (COLO 205 colon): 1.87 µM | TGI (COLO 205 colon): 4.07 µM | GI50 (DU-145 prostate): 3.19 µM | TGI (DU-145 prostate): 10.8 µM | GI50 (SF-268 CNS): 3.43 µM | TGI (SF-268 CNS): 18.6 µM | GI50 (SK-MEL-2 melanoma): 2.25 µM | TGI (SK-MEL-2 melanoma): 6.38 µM | GI50 (U251 CNS): 1.61 µM | TGI (U251 CNS): 3.64 µM | GI50 (IGROV1 ovarian): 1.6 µM | TGI (IGROV1 ovarian): 4.06 µM | GI50 (ACHN renal): 1.97 µM | TGI (ACHN renal): 4.33 µM | GI50 (HCC-2998 colon): 1.65 µM | TGI (HCC-2998 colon): 3.09 µM | GI50 (HL-60(TB) leukemia): 2.18 µM | TGI (HL-60(TB) leukemia): 8.04 µM | GI50 (SF-539 CNS): 1.81 µM | TGI (SF-539 CNS): 3.64 µM | GI50 (A549 NSCLC): 3.04 µM | TGI (A549 NSCLC): 12.3 µM | GI50 (CAKI-1 renal): 3.35 µM | TGI (CAKI-1 renal): > 100 µM | GI50 (OVCAR-5 ovarian): 2.06 µM | TGI (OVCAR-5 ovarian): 4.34 µM | GI50 (NCI/ADR-RES ovarian): > 100 µM | TGI (NCI/ADR-RES ovarian): > 100 µM | GI50 (SNB-19 CNS): 3 µM | TGI (SNB-19 CNS): 13.3 µM | GI50 (MOLT-4 leukemia): 2.7 µM | TGI (MOLT-4 leukemia): > 100 µM | GI50 (MCF7 breast): 0.361 µM | TGI (MCF7 breast): 1.86 µM | GI50 (HT29 colon): 1.7 µM | TGI (HT29 colon): 3.3 µM | GI50 (OVCAR-8 ovarian): 3.44 µM | TGI (OVCAR-8 ovarian): > 100 µM | GI50 (UACC-62 melanoma): 2.55 µM | TGI (UACC-62 melanoma): 10.4 µM | GI50 (UO-31 renal): 1.63 µM | TGI (UO-31 renal): 4.77 µM | GI50 (OVCAR-4 ovarian): 2.79 µM | TGI (OVCAR-4 ovarian): 8.91 µM | GI50 (786-0 renal): 1.84 µM | TGI (786-0 renal): 3.43 µM | GI50 (SNB-75 CNS): 3.5 µM | TGI (SNB-75 CNS): 17.3 µM | GI50 (NCI-H23 lung): 1.85 µM | TGI (NCI-H23 lung): 4.16 µM | GI50 (A498 renal): 1.5 µM | TGI (A498 renal): 2.92 µM | GI50 (MALME-3M melanoma): 3.2 µM | TGI (MALME-3M melanoma): 24.9 µM | GI50 (LOX IMVI melanoma): 0.904 µM | TGI (LOX IMVI melanoma): 2.34 µM | GI50 (EKVX NSCLC): 3.69 µM | TGI (EKVX NSCLC): > 100 µM | GI50 (SR leukemia): 0.522 µM | TGI (SR leukemia): > 100 µM | GI50 (SN12C renal): 3.71 µM | TGI (SN12C renal): > 100 µM | GI50 (K-562 leukemia): 0.991 µM | TGI (K-562 leukemia): > 100 µM | GI50 (RPMI-8226 leukemia): 0.288 µM | TGI (RPMI-8226 leukemia): 1.26 µM
